Source: publication PMC9227096, “Design, Synthesis, and In Vitro, In Silico and In Cellulo Evaluation of New Pyrimidine and Pyridine Amide and Carbamate Derivatives as Multi-Functional Cholinesterase Inhibitors” (Pharmaceuticals, 2022)

What was measured:
[1] = molecular target: T1, tau protein (Homo sapiens, UniProt P10636); experiment: Inhibition of tau aggregation in intact E. coli cells, thioflavin-S staining; type: cell-based, Escherichia coli; details: [I] = 100 µM, E. coli cells overexpressing tau
T1 construct: expressed in transfected cells; host or cells: E. coli BL21 (DE3) with pTARA (T7 RNA polymerase under PBAD) and pRKT42
Experimental: (§1) For compounds 12, 14 and 18, the inhibitory activity against Aβ42 and tau aggregation was evaluated. The anti-aggregating effect of tested compounds was monitored by a cell-based assay in intact Escherichia coli cells that overexpress either Aβ42 peptide or tau protein, which, upon expression, form insoluble inclusion bodies that were stained with thioflavin-S [42]. The percentages of inhibition towards Aβ42 and tau aggregation were determined at an inhibitor concentration of 100 µM and the obtained results are reported in Table 6. In general, these compounds show a weak anti-aggregating activity; among these, the pyridine carbamate 18 is the best inhibitor of aggregation of both Aβ42 and tau.
E. coli BL21 (DE3) competent cells were transformed with pTARA containing the RNA-polymerase gene of T7 phage (T7RP), under the control of the promoter PBAD. E. coli BL21 (DE3), with pTARA competent cells, were transformed with the pRKT42 vector encoding four repeats of the tau protein in two inserts. For overnight culture preparation, 10 mL of the M9 medium containing 0.5% of glucose, 50 μg·mL^−1 of ampicillin, and 12.5 μg·mL^−1 of chloramphenicol was inoculated with a colony of BL21 (DE3) bearing the plasmids to be expressed at 37 °C. […]
(§2) Th-S (T1892) and other chemical reagents were purchased from Sigma (St. Louis, MO, USA). […] Th-S fluorescence and absorbance were tracked using a DTX 800 plate reader Multimode Detector equipped with a Multimode Analysis Software (Beckman-Coulter, Indianapolis, IN, USA). […] A filter of 535/25 nm was also used for the absorbance determination. To normalize the Th-S fluorescence as a function of the bacterial concentration, OD600 was obtained using a Shimadzu UV-2401 PC UV–Vis spectrophotometer (Shimadzu, Japan). Note that the fluorescence normalisation was carried out considering 100% of the Th-S fluorescence of the bacterial cells expressing the peptide or protein in the absence of the drug and 0% of the Th-S fluorescence of the bacterial cells not expressing the peptide or protein. […]

[2] = molecular target: T2, Aβ42 peptide (Homo sapiens, UniProt P05067); experiment: Inhibition of Aβ42 aggregation in intact E. coli cells, thioflavin-S staining; type: cell-based, Escherichia coli; details: [I] = 100 µM, E. coli cells overexpressing Aβ42
T2 construct: expressed in transfected cells; host or cells: E. coli BL21 (DE3), pET28a vector
Experimental: as §1
E. coli competent cells BL21 (DE3) were transformed with the pET28a vector (Novagen, Inc., Madison, WI, USA) carrying the DNA sequence of Aβ42. Because of the addition of the initiation codon ATG in front of both genes, the overexpressed peptide contains an additional methionine residue at its N terminus. For overnight culture preparation, an amount of 10 mL of the M9 minimal medium containing 50 μg·mL^−1 of kanamycin was inoculated with a colony of BL21 (DE3) bearing the plasmid to be expressed at 37 °C. […]
as §2

T2 sequence (P05067 672-713 limits assumed): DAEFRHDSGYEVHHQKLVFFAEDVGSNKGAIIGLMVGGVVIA
T1 sequence (P10636 1-441 isoform P10636-8): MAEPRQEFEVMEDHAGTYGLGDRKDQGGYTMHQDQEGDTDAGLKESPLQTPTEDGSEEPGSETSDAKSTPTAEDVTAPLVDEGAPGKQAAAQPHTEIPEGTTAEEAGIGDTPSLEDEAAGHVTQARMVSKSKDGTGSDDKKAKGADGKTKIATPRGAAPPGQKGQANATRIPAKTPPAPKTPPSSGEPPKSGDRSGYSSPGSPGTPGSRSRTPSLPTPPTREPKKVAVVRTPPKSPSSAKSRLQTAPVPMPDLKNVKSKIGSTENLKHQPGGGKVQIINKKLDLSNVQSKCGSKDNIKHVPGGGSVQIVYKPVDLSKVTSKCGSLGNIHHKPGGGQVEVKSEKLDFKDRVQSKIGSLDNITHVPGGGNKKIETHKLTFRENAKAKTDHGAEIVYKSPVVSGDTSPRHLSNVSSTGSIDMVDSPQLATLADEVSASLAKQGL

Q: What does the source list for O=C(NCCCCCCNc1ccccn1)c1ccccc1 [Compound 12, N-(6-(pyridin-2-ylamino)hexyl)benzamide]?
A: inhibition at 100 µM [1]: 11%; inhibition at 100 µM [2]: 11.9%

Q: How did the inhibition at 100 µM [1] turn out when O=C(Cc1ccc(Oc2ccccc2)cc1)NCCCCCCNc1ccccn1 [Compound 14, 2-(4-phenoxyphenyl)-N-(6-(pyridin-2-ylamino)hexyl)acetamide] was run?
A: 10.9%

Q: What about the inhibition at 100 µM [2] of the same compound?
A: 13.3%

Q: How did the inhibition at 100 µM [1] turn out when O=C(NCCCCCCNc1ccccn1)Oc1ccccc1 [Compound 18, Phenyl (6-(pyridin-2-ylamino)hexyl)carbamate] was run?
A: 15.7%

Q: What about the inhibition at 100 µM [2] of the same compound?
A: 23.1%
